Experimental data reported in ChEMBL document CHEMBL4229410, “Facile construction of fused benzimidazole-isoquinolinones that induce cell-cycle arrest and apoptosis in colorectal cancer cells” (Bioorg Med Chem, 2018).
pKd: −log10 of the molar value. The source made the active and inactive calls. No cut-off for these calls is given here.

Columns and labels:
SW-620 [1] = assay: Cell cycle arrest in human SW620 cells assessed as accumulation at G1-phase at 25 uM after 48 hrs by propidium iodide staining based flow cytometry (reference value: 40.56%); format: functional
SW-620 [2] = assay: Cell cycle arrest in human SW620 cells assessed as accumulation at G1-phase at 75 uM after 48 hrs by propidium iodide staining based flow cytometry (reference value: 40.56%); format: functional
SW-620 [3] = assay: Cell cycle arrest in human SW620 cells assessed as accumulation at G2-phase at 75 uM after 48 hrs by propidium iodide staining based flow cytometry (reference value: 14.08%); format: functional
HT-29 [4] = assay: Cell cycle arrest in human HT-29 cells assessed as accumulation at G2-phase at 75 uM after 48 hrs by propidium iodide staining based flow cytometry (reference value: 15.45%); format: functional
SW-620 [5] = assay: Induction of apoptosis in human SW620 cells assessed as live cells at 25 uM after 48 hrs by Annexin-V-FITC/propidium iodide staining based flow cytometry (reference value: 97.5%); format: functional
HT-29 [6] = assay: Induction of apoptosis in human HT-29 cells assessed as early apoptotic cells at 25 uM after 48 hrs by Annexin-V-FITC/propidium iodide staining based flow cytometry (reference value: 1%); format: functional
HT-29 [7] = assay: Induction of apoptosis in human HT-29 cells assessed as necrotic cells at 25 uM after 48 hrs by Annexin-V-FITC/propidium iodide staining based flow cytometry (reference value: 1.6%); format: functional
SW-620 [8] = assay: Induction of apoptosis in human SW620 cells after 48 hrs by Annexin-V-FITC/propidium iodide staining based flow cytometry; format: functional, cell-based
HT-29 [9] = assay: Inhibition of PI3K/AKT signaling pathway in human HT-29 cells assessed as reduction in mTOR phosphorylation up to 75 uM after 48 hrs by Western blot analysis; format: cell-based
Homo sapiens = organism: Homo sapiens; assay: Inhibition of PI3K/AKT signaling pathway in human SW620 cells assessed as reduction in mTOR phosphorylation up to 75 uM after 48 hrs by Western blot analysis; format: cell-based
[10] = molecular target: Aurora kinase A (Homo sapiens) (UniProt O14965); assay: Inhibition of human AURKA (E122 to K401 residues) expressed in mammalian expression system assessed as residual activity at 5 uM by KINOMEscan assay relative to control
Aurora kinase B = Aurora kinase B (Homo sapiens, UniProt Q96GD4); assay: Inhibition of human AURKB (D25 to A303 residues) expressed in mammalian expression system assessed as residual activity at 5 uM by KINOMEscan assay relative to control
[11] = molecular target: Tyrosine-protein kinase BTK (Homo sapiens, UniProt Q06187); assay: Inhibition of full length human BTK (M1 to S659 residues) expressed in mammalian expression system assessed as residual activity at 5 uM by KINOMEscan assay relative to control
[12] = molecular target: Cyclin-dependent kinase 3 (Homo sapiens, UniProt Q00526); assay: Inhibition of full length human CDK3 (M1 to H305 residues) expressed in bacterial expression system assessed as residual activity at 5 uM by KINOMEscan assay relative to control
[13] = molecular target: Cyclin-dependent kinase 7 (Homo sapiens, UniProt P50613); assay: Inhibition of full length human CDK7 (M1 to L344 residues) expressed in mammalian expression system assessed as residual activity at 5 uM by KINOMEscan assay relative to control
[14] = molecular target: Casein kinase I isoform gamma-2 (Homo sapiens, UniProt P78368); assay: Inhibition of full length human CSNK1G2 (M1 to K415 residues) expressed in bacterial expression system assessed as residual activity at 5 uM by KINOMEscan assay relative to control
[15] = molecular target: Serine/threonine-protein kinase DCLK1 (Homo sapiens) (UniProt O15075); assay: Inhibition of partial length human DCAMKL1 (L270 to A662 residues) expressed in mammalian expression system assessed as residual activity at 5 uM by KINOMEscan assay relative to control
[16] = molecular target: Serine/threonine-protein kinase STK11 (Homo sapiens) (UniProt Q15831); assay: Inhibition of full length human LKB1 (M1 to Q433 residues) expressed in bacterial expression system assessed as residual activity at 5 uM by KINOMEscan assay relative to control
[17] = molecular target: Mitogen-activated protein kinase 11 (Homo sapiens, UniProt Q15759); assay: Inhibition of full length human p38beta (M1 to Q364 residues) expressed in bacterial expression system assessed as residual activity at 5 uM by KINOMEscan assay relative to control
[18] = molecular target: Platelet-derived growth factor receptor alpha (Homo sapiens, UniProt P16234); assay: Inhibition of human PDGFRA (V575 to D1002 residues) expressed in mammalian expression system assessed as residual activity at 5 uM by KINOMEscan assay relative to control
[19] = molecular target: T1, RAF proto-oncogene serine/threonine-protein kinase (Homo sapiens, UniProt P04049); assay: Inhibition of human RAF1 (I330 to T640 residues) expressed in bacterial expression system assessed as residual activity at 5 uM by KINOMEscan assay relative to control
[20] = molecular target: NUAK family SNF1-like kinase 2 (Homo sapiens) (UniProt Q9H093); assay: Inhibition of human SNARK (P22 to A333 residues) expressed in mammalian expression system assessed as residual activity at 5 uM by KINOMEscan assay relative to control
[21] = molecular target: Testis-specific serine/threonine-protein kinase 1 (Homo sapiens) (UniProt Q9BXA7); assay: Inhibition of full length human TSSK1B (M1 to Q367 residues) expressed in bacterial expression system assessed as residual activity at 5 uM by KINOMEscan assay relative to control
[22] = molecular target: Tyrosine-protein kinase receptor UFO (Homo sapiens, UniProt P30530); assay: Binding affinity to human AXL (R497 to Y821 residues) expressed in bacterial expression system by KINOMEscan assay
[23] = molecular target: Tyrosine-protein kinase JAK2 (Homo sapiens, UniProt O60674); assay: Binding affinity to human JAK2 JH1 catalytic domain (A829 to G1132 residues) expressed in mammalian expression system by KINOMEscan assay
[24] = molecular target: Mast/stem cell growth factor receptor Kit (Homo sapiens, UniProt P10721, T670I/V559D); assay: Binding affinity to human KIT (I571 to D952 residues) V559D/T670I double mutant expressed in bacterial expression system by KINOMEscan assay
[25] = molecular target: Mitogen-activated protein kinase kinase kinase 4 (Homo sapiens, UniProt Q9Y6R4); assay: Binding affinity to human MAP3K4 (G1319 to E1608 residues) expressed in bacterial expression system by KINOMEscan assay
[26] = molecular target: Dual specificity mitogen-activated protein kinase kinase 2 (Homo sapiens, UniProt P36507); assay: Binding affinity to full length human MEK2 (M1 to V400 residues) expressed in mammalian expression system by KINOMEscan assay
[27] = molecular target: T1, RAF proto-oncogene serine/threonine-protein kinase; assay: Binding affinity to human RAF1 (I330 to T640 residues) expressed in bacterial expression system by KINOMEscan assay
[28] = molecular target: High affinity nerve growth factor receptor (Homo sapiens, UniProt P04629); assay: Binding affinity to human TRKA (G475 to G790 residues) expressed in mammalian expression system by KINOMEscan assay
Sequence of High affinity nerve growth factor receptor (P04629 whole entry, the tested form may be a part): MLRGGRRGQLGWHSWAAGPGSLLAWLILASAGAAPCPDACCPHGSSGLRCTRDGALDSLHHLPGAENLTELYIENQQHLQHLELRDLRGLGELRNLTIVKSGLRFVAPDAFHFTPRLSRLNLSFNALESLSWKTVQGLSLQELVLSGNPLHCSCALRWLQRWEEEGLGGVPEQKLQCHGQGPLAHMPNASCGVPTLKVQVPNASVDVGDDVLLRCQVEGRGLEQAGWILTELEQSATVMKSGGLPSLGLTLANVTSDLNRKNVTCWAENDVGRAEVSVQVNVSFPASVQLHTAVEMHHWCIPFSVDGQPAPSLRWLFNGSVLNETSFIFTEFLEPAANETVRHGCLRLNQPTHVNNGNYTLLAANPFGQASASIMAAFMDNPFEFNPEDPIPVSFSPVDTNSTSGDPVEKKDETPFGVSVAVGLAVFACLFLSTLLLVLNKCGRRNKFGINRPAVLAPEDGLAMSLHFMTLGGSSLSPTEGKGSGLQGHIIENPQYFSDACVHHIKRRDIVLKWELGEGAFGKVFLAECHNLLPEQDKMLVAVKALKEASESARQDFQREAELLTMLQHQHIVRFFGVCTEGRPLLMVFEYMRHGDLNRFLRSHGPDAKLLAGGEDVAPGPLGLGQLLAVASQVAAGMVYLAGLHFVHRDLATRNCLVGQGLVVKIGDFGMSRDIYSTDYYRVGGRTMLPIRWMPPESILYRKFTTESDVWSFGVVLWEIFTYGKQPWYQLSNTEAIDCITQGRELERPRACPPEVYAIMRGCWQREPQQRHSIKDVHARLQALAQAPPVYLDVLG

T1 sequence (P04049 whole entry, the tested form may be a part): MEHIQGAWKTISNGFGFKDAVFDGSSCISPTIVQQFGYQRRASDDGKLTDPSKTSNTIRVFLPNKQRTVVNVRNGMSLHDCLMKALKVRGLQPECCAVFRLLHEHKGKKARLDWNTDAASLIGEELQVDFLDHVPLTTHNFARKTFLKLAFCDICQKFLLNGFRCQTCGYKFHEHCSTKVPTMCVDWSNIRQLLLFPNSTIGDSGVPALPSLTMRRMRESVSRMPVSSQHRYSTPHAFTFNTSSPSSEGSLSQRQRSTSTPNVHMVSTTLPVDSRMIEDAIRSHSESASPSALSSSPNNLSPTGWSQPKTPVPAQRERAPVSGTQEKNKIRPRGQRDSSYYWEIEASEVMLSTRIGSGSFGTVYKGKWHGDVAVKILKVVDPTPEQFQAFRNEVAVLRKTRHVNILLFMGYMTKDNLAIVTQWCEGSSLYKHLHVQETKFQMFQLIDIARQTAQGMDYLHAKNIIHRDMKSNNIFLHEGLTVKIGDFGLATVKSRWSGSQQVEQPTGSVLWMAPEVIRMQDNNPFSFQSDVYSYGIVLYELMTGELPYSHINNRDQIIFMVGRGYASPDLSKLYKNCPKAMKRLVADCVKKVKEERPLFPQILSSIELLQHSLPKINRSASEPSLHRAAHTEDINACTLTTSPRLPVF
Sequence of Serine/threonine-protein kinase STK11 (Homo sapiens) (Q15831 whole entry, the tested form may be a part): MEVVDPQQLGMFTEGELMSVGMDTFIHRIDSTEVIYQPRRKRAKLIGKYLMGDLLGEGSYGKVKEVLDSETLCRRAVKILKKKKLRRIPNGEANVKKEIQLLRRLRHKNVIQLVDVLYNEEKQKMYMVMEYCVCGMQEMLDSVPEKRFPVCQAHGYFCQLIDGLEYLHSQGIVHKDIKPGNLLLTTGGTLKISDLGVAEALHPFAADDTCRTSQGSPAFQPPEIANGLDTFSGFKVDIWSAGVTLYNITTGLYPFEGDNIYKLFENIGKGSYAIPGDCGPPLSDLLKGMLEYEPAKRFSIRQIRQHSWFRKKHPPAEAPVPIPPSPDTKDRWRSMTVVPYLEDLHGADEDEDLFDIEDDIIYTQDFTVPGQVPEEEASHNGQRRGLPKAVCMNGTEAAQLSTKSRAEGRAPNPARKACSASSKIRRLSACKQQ
Sequence of Tyrosine-protein kinase receptor UFO (P30530 whole entry, the tested form may be a part): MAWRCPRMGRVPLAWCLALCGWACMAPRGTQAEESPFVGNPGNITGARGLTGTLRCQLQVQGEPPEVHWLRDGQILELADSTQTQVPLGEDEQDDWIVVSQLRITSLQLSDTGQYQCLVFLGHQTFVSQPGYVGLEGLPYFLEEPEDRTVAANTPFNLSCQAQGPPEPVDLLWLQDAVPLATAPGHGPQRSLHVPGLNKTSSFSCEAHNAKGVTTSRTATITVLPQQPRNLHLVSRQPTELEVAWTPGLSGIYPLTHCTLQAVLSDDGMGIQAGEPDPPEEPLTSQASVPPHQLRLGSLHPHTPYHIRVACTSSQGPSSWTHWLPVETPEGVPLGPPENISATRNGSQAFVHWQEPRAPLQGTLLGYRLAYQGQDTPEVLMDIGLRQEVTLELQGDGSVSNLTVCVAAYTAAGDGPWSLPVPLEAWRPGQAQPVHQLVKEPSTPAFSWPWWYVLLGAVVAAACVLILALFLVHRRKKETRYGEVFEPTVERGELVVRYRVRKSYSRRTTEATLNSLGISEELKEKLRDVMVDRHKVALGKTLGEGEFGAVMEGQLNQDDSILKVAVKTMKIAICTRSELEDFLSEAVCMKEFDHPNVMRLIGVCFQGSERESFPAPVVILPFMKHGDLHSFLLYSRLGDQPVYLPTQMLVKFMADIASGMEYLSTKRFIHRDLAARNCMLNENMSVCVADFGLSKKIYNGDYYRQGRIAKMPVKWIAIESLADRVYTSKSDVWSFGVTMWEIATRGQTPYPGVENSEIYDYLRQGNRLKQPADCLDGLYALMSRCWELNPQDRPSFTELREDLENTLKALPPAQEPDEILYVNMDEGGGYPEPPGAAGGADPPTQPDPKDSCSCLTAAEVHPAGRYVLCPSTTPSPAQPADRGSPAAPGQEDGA
Sequence of Mast/stem cell growth factor receptor Kit (P10721 26-976 V559D/T670I limits assumed): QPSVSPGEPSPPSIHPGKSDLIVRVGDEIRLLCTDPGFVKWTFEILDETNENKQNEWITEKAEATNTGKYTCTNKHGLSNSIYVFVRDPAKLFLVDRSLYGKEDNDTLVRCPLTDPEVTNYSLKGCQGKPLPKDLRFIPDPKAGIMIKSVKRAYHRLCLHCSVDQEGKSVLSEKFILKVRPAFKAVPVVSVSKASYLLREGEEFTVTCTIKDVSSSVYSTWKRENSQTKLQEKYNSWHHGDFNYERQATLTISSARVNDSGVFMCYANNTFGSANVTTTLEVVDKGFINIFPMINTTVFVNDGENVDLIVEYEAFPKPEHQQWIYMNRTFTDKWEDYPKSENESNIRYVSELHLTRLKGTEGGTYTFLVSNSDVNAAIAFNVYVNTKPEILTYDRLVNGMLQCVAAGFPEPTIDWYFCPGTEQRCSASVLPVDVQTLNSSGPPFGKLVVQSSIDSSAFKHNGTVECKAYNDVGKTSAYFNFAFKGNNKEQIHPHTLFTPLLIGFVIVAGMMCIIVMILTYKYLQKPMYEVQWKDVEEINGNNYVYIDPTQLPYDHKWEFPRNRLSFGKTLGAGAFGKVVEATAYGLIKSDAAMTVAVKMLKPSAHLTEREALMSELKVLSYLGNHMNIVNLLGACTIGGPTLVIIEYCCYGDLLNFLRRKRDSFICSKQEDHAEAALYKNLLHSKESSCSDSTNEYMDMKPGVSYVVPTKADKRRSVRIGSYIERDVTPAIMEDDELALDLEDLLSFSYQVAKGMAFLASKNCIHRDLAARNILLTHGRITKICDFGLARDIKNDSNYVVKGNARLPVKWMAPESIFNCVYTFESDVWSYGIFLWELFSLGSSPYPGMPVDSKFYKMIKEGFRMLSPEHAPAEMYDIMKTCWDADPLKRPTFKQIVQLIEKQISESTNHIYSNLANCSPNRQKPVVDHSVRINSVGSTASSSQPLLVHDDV
Sequence of Serine/threonine-protein kinase DCLK1 (Homo sapiens) (O15075 whole entry, the tested form may be a part): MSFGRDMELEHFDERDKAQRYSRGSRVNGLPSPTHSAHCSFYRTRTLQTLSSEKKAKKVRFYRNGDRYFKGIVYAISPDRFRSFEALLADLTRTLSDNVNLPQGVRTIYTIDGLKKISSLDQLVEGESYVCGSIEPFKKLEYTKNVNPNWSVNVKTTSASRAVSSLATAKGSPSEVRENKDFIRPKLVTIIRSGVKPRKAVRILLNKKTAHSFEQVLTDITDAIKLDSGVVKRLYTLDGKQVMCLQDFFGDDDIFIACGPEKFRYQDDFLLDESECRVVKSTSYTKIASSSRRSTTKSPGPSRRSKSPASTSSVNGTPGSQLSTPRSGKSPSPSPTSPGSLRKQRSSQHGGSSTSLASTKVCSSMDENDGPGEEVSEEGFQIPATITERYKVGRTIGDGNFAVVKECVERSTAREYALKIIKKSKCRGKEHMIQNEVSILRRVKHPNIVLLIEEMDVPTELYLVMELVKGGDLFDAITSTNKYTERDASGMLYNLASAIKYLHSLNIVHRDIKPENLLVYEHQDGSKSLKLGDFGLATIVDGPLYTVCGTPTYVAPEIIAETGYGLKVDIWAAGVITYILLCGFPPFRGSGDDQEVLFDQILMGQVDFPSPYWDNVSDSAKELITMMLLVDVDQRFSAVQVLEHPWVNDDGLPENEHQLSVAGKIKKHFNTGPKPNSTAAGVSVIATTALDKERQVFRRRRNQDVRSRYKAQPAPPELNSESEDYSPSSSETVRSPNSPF
Sequence of Testis-specific serine/threonine-protein kinase 1 (Homo sapiens) (Q9BXA7 whole entry, the tested form may be a part): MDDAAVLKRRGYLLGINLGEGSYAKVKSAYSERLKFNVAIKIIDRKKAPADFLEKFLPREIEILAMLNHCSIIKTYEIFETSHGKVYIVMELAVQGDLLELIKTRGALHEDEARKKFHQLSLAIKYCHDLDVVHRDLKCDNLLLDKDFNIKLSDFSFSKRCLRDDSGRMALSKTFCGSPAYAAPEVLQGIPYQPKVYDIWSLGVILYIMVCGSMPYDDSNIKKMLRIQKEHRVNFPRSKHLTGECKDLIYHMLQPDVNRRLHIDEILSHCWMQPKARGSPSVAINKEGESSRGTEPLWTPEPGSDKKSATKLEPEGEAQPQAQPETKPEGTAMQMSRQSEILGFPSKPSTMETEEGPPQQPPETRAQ

CC(C)CN(C(=O)c1cccnc1)c1c2ccccc2c(=O)n2c1[nH]c1ccccc12
Activity (SW-620 [1]): 39.26%
Activity (SW-620 [2]): 31.67%
Activity (SW-620 [3]): 29.26%
Activity (HT-29 [4]): 21.78%
Activity (SW-620 [5]): 92.1%
Activity (HT-29 [6]): 0.9%
Activity (HT-29 [7]): 2.7%
Activity (SW-620 [8]): Dose-dependent effect
inhibition (HT-29 [9]): Active
inhibition (Homo sapiens): Active
Activity [10]: 100%
Activity (Aurora kinase B): 92%
Activity [11]: 74%
Activity [12]: 95%
Activity [13]: 100%
Activity [14]: 76%
Activity [15]: 74%
Activity [16]: 63%
Activity [17]: 100%
Activity [18]: 100%
Activity [19]: 89%
Activity [20]: 100%
Activity [21]: 92%
pKd [22]: ≤ 5.30
pKd [23]: ≤ 5.30
pKd [24]: ≤ 5.30
pKd [25]: ≤ 5.30
pKd [26]: ≤ 5.30
pKd [27]: ≤ 5.30
pKd [28]: ≤ 5.30
